Measured values as given in patent publication US10765664B2, “Treatment of infectious diseases” (CHILDREN'S MEDICAL CENTER CORPORATION, priority 2015, dated 2020).
Read-outs that look alike come from different tables or passages of the source.

Key:
IFITM3 = IFITM3 mRNA in THP-1 cells stimulated with cytokines or TLR agonists, real time PCR; assay type: cell-based, human; conditions: for IFITM3 mRNA induction: data not shown (Example 3)
[1] = tizoxanide after a 500 mg dose of NTZ; cited from earlier work
[2] = in vivo; cited from earlier work
[3] = in vivo; cited from earlier work; remark: listed apart in the source
[4] = system: Zaire ebolavirus GP-pseudotyped lentivirus; experiment: organism not typed; assay type: cell-based
live Ebola virus = assay type: cell-based
H37Rv-mCherry MTb = assay type: cell-based, Mycobacterium tuberculosis; conditions: concentration-dependent; 0, 5, 10, 15, or 20 μM NTZ pretreatment
HIV-1Bal/ZsGreen1 = assay type: cell-based; conditions: pretreatment with 1 μM NTZ
HIV LTR [5] = assay type: cell-based; conditions: for HIV transcriptional activation (LTR-Renilla): NTZ 5 or 10 μM pretreatment
HIV LTR [6] = assay type: cell-based
PKR [7] = experiment: PKR gene transcription in HeLa cells; assay type: cell-based, human
RIG-I = RIG-I gene transcription in HeLa cells; assay type: cell-based, human
HIV = assay type: cell-based; conditions: MDM or AM/lymphocyte system; expected
nonreplicating MTb = conditions: cited from earlier work
PKR [8] = biological target: PKR (Homo sapiens, UniProt P19525); conditions: hepatoma cells; cited from earlier work
MTb = conditions: by inhibiting the mTOR pathway; cited from earlier work
[9] = system: MTb-infected THP-1 cells and human monocytes; conditions: through inhibition of NQO1; cited from earlier work
X4-tropic HIV = conditions: human PBMC, with glucocorticoids; cited from earlier work
influenza = conditions: in vivo; cited from earlier work
HCV = conditions: added to ribavirin plus pegylated IFN; cited from earlier work
THP-1 cells = experiment: Cellular acidification of THP-1 cells, Lysotracker Red flow cytometry; conditions: 24 hrs

Chain of PKR (Homo sapiens, UniProt P19525) (P19525 whole entry): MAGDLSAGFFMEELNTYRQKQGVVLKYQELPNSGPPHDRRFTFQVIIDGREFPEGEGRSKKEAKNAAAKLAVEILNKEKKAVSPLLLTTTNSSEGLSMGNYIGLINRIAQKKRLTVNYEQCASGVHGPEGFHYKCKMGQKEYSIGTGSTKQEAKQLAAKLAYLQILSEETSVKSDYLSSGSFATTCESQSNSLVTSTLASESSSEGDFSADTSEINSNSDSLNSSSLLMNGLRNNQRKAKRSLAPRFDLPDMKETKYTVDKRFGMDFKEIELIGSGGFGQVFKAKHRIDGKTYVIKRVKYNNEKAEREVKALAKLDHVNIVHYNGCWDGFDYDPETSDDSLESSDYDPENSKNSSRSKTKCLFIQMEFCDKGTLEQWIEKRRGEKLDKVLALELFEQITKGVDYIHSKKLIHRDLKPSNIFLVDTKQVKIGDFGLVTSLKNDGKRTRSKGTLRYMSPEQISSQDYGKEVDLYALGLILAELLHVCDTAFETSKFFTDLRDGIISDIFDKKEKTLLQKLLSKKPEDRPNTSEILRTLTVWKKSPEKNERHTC

IL-1β: recombinant IL-1β
IFITM3 mRNA vs untreated control cells (IFITM3; THP-1 cells, by 48 hrs): significantly elevated

O=C(Nc1ncc([N+](=O)[O-])s1)c1ccccc1O [tizoxanide]
peak mean plasma concentration [1]: 26 µM

MCP-1: MCP-1 cytokine treatment
IFITM3 mRNA induction (IFITM3): not induced

Pam3Cys
IFITM3 gene expression (IFITM3; THP-1 cells, TLR agonist 100 ng/ml, 24 and 48 hours): significantly induced

CC(=O)Oc1ccccc1C(=O)Nc1ncc(Cl)s1 [RM-5038]
absorption in the GI tract compared to NTZ [2]: better absorbed | tolerability compared to NTZ [3]: better tolerated

IL-6: recombinant IL-6
IFITM3 transcript levels (IFITM3; THP-1 cells, by 24 hours post-stimulation): significant increase

IFN-γ: IFN-γ treatment
IFITM3 mRNA induction (IFITM3): strongly induced

CC(=O)Oc1ccccc1C(=O)Nc1ncc([N+](=O)[O-])s1 [NTZ, [2-[(5-nitro-1,3-thiazol-2-yl)carbamoyl]phenyl] ethanoate]
infection by Zaire Ebolavirus GP-pseudotyped lentiviral particles [4]: inhibits | inhibition at 8 µM ([4]; THP-1, read-out: inhibition of ZE-LV infection): ~40% | inhibition of live Ebola virus (live Ebola virus): inhibit | MTb infection of THP-1 cells (H37Rv-mCherry MTb): potently inhibits | HIVBALZsGreen1 infection of MDM (HIV-1Bal/ZsGreen1): suppresses | activation of the integrated LTR-Renilla reporter gene (HIV LTR [5]; MTb infection, not shown): significantly inhibits | HIV transcriptional activation (LTR-Renilla) (HIV LTR [5]; Sendai virus infection): inhibited | HIV transcriptional activation (LTR-Renilla) (HIV LTR [5]; stimulation with TLR2 agonist Pam3Cys): inhibited | LTR reactivation (ZsGreen1) (HIV LTR [6]; TLR2 agonist Pam3Cys, 10 μM NTZ, 6 hrs): reduces | LTR reactivation (ZsGreen1) (HIV LTR [6]; direct MTb infection, 6 hours): reduces | transcription of PKR gene (PKR [7]): induce | transcription of RIG-I gene (RIG-I): induce | MTb augmentation of HIV replication (HIV): suppressed | reduction of viable, nonreplicating MTb (nonreplicating MTb): over 2 log units | autophosphorylation of PKR (PKR [8]): directly induces | MTb proliferation (MTb): suppress | autophagy [9]: promotes autophagy | suppression of X4-tropic HIV replication (X4-tropic HIV): synergizes | treatment of uncomplicated influenza (influenza): efficacy | HCV virological response (HCV): significantly improve | intracellular acidity (THP-1 cells): increased intracellular acidity
